What was measured:
Test in all cases: fluorescence light-up, plate reader
Settings in all cases: 100 mM K+ (KCl); 20 mM Tris-HCl, pH 7.8; 5 µM dye, 5 µM oligonucleotide; not an affinity constant
[1] = test system: TBA25 (DNA, G4) TGGTAGGTTGGTGTGGTTGGGGCCA
[2] = test system: ON31 (RNA, G4) CACUGGUAGGUUGGUGUGGUUGGGGCCAGUG
[3] = test system: TBA31 (DNA, G4) CACTGGTAGGTTGGTGTGGTTGGGGCCAGTG
[4] = test system: ON15 (RNA, G4) GGUUGGUGUGGUUGG
[5] = test system: ON1+2 (ON1-ON2 duplex) (DNA, duplex) ATAAAATAAAAAATTACACTGG/CCAGTGTAATTTTTTATTTTAT
[6] = test system: TBA63 (DNA, G4) ATAAAATAAAAAATTACACTGGTAGGTTGGTGTGGTTGGGGCCAGTGTAATTTTTTATTTTAT
[7] = test system: Tel23a (DNA, G4) AGGGTTAGGGTTAGGGTTAGGGT
[8] = test system: TBA15 (DNA, G4) GGTTGGTGTGGTTGG

| Fluorescence Intensity Enhancement [1] | Fluorescence Intensity Enhancement [2] | Fluorescence Intensity Enhancement [3] | Fluorescence Intensity Enhancement [4] | Fluorescence Intensity Enhancement [7] | Fluorescence Intensity Enhancement [8] | SMILES | other results |
| --- | --- | --- | --- | --- | --- | --- | --- |
| 23.0 ± 0.25 fold | – | – | – | – | – | CN1C(=O)/C(=C/c2ccc(O)cc2)N=C1/C=C/c1ccccc1F | – |
| – | 2.5 ± 0.03 fold | – | – | – | – | CN1C(=O)/C(=C/c2ccc(O)cc2)N=C1/C=C/c1ccc(C(F)(F)F)cc1 | – |
| 20.6 ± 0.29 fold | – | 12.3 ± 0.13 fold | – | – | – | CN1C(=O)/C(=C/c2ccc(O)cc2)N=C1/C=C/c1ccc(N(C)C)cc1 | – |
| – | – | 7.4 ± 0.08 fold | – | – | 2.0 ± 0.08 fold | CN1C(=O)/C(=C/c2ccc(O)cc2)N=C1/C=C/c1ccc(Br)cc1 | – |

More lines, now with the values behind:

| SMILES | Fluorescence Intensity Enhancement [1] | Fluorescence Intensity Enhancement [2] | Fluorescence Intensity Enhancement [3] | Fluorescence Intensity Enhancement [4] | Fluorescence Intensity Enhancement [7] | Fluorescence Intensity Enhancement [8] | other results |
| --- | --- | --- | --- | --- | --- | --- | --- |
| CN1C(=O)/C(=C/c2ccccc2)N=C1Nc1ccccc1 | – | 11.0 ± 0.13 fold | – | 4.7 ± 0.11 fold | – | – | – |
| Cc1ccc(/C(O)=C/C2=NC(=C\c3ccc(O)cc3)/C(=O)N2C)cc1 | 19.1 ± 0.21 fold | – | 18.8 ± 0.28 fold | – | 12.4 ± 0.19 fold | 2.1 ± 0.12 fold | Fluorescence Intensity Enhancement [5]: 4.0 ± 0.09 fold; Fluorescence Intensity Enhancement [6]: 12.1 ± 0.15 fold |
| CC(=O)C1=N/C(=C\c2c[nH]c3ccccc23)C(=O)N1C | 31.7 ± 0.40 fold | 19.0 ± 0.25 fold | 20.5 ± 0.22 fold | 7.1 ± 0.09 fold | 7.1 ± 0.16 fold | 2.9 ± 0.11 fold | – |
| CN1C(=O)/C(=C/c2ccc(O)cc2)N=C1C(=O)c1ccccc1 | 8.7 ± 0.17 fold | – | – | 6.1 ± 0.10 fold | – | – | – |
| CN1/C(=C/c2cc[n+](C)cc2)Sc2ccccc21 | – | – | – | – | – | – | binding [2]: yes; binding [4]: yes |
| COc1cc(/C=C2N=C(/C=C/c3ccncc3)N(C)C\2=O)cc(OC)c1O | – | 6.8 ± 0.13 fold | 16.5 ± 0.18 fold | – | 6.2 ± 0.12 fold | 3.3 ± 0.13 fold | – |

— publication PMC7038953 (2020)
